Measured values published in ChEMBL document CHEMBL1150150, “New dammarane and malabaricane triterpenes from Caloncoba echinata” (J Nat Prod, 2002).

Assays:
[1] = Effect on human erythrocyte morphology assessed as ghost cell formation at 50 to 100 ug/mL after 48 hrs by Giemsa staining; assay type: ADME, cell-based
[2] = Effect on human erythrocyte morphology assessed as transformation of erythrocytes to stomatocytes S1 type at 12.5 ug/mL after 48 hrs by Giemsa staining; assay type: ADME, cell-based
[3] = Toxicity in human erythrocyte assessed as lysis at 25 to 100 ug/mL after 48 hrs by Giemsa staining; assay type: cell-based
[4] = Toxicity in human erythrocytes assessed as transformation of erythrocytes to stomatocytes at 0.625 after 48 hrs by Giemsa staining; assay type: cell-based; conditions: erythrocyte
[5] = Effect on morphology of human erythrocytes assessed as transformation of erythrocytes to stomatocytes S1 type at 6.25 ug/mL after 48 hrs by Giemsa staining; assay type: ADME, cell-based; conditions: erythrocyte
[6] = Effect on human erythrocyte morphology assessed as transformation of erythrocytes to spherostomatocytes at 25 to 100 ug/mL after 48 hrs by Giemsa staining; assay type: ADME, cell-based
[7] = Effect on morphology of human erythrocytes assessed as occurrence of normal discocytes at 6.25 ug/mL after 48 hrs by Giemsa staining; assay type: ADME, cell-based; conditions: erythrocyte
[8] = Effect on human erythrocyte morphology assessed as transformation of erythrocytes to stomatocytes S1 type at 25 to 100 ug/mL after 48 hrs by Giemsa staining; assay type: ADME, cell-based
Plasmodium falciparum = experiment: Antiplasmodial activity against chloroquine-sensitive Plasmodium falciparum 3D7 after 48 hrs by [3H]phenylalanine uptake
[9] = Effect on human erythrocyte morphology assessed as transformation of erythrocytes to stomatocytes S2 type at 25 to 100 ug/mL after 48 hrs by Giemsa staining; assay type: ADME, cell-based
[10] = Effect on human erythrocyte morphology assessed as transformation of erythrocytes to stomatocytes after 48 hrs by Giemsa staining; assay type: ADME, cell-based
[11] = Effect on morphology of human erythrocytes assessed as transformation of erythrocytes to stomatocytes S2 type at 6.25 ug/mL after 48 hrs by Giemsa staining; assay type: ADME, cell-based; conditions: erythrocyte
[12] = Toxicity in human erythrocytes assessed as lysis at 12.5 ug/mL after 48 hrs by Giemsa staining; assay type: cell-based; conditions: erythrocyte

Q: With `C=C(CC[C@H](O)[C@@]1(C)CC[C@H](C(C)(C)O)O1)[C@H]1CC[C@H]2[C@@]1(C)CC[C@H]1C(C)(C)C(=O)CC[C@]21C` as the molecule, how does the Activity [1] read?
A: Toxic

Q: And the Activity [2]?
A: Toxic

Q: What about the Activity [3] of the same molecule?
A: Toxic

Q: What about the Activity [4] of the same molecule?
A: Non-toxic

Q: What about the Activity [5] of the same molecule?
A: Toxic

Q: What about the Activity [6] of the same molecule?
A: Toxic

Q: And the Activity [7]?
A: Non-toxic

Q: What about the Activity [8] of the same molecule?
A: Toxic

Q: And the IC50 (Plasmodium falciparum)?
A: < 12 µg/mL

Q: And the Activity [9]?
A: Toxic

Q: And the Activity [10]?
A: Toxic

Q: Which Activity [1] does the source give for `CC(C)=CCC[C@@](C)(O)[C@H]1CC[C@]2(C)[C@@H]1C[C@@H](O)[C@@H]1[C@@]3(C)CCC(=O)C(C)(C)[C@@H]3CC[C@]12C` here?
A: Toxic

Q: What about the Activity [11] of the same molecule?
A: Toxic

Q: And the Activity [2]?
A: Toxic

Q: What about the Activity [3] of the same molecule?
A: Toxic

Q: And the Activity [4]?
A: Non-toxic

Q: And the Activity [5]?
A: Toxic

Q: And the Activity [6]?
A: Toxic

Q: And the Activity [7]?
A: Non-toxic

Q: What about the Activity [12] of the same molecule?
A: Non-toxic

Q: And the Activity [8]?
A: Toxic

Q: And the IC50 (Plasmodium falciparum)?
A: < 12 µg/mL

Q: And the Activity [9]?
A: Toxic

Q: And the Activity [10]?
A: Toxic

Q: With `C=C(CC[C@@H](O)[C@]1(C)CC[C@H](C(C)(C)O)O1)[C@H]1CC[C@H]2[C@@]1(C)CC[C@H]1C(C)(C)C(=O)CC[C@]21C` as the molecule, how does the Activity [1] read?
A: Toxic

Q: What about the Activity [2] of the same molecule?
A: Toxic

Q: And the Activity [3]?
A: Toxic

Q: And the Activity [4]?
A: Non-toxic

Q: What about the Activity [5] of the same molecule?
A: Toxic

Q: What about the Activity [6] of the same molecule?
A: Toxic

Q: And the Activity [7]?
A: Non-toxic

Q: What about the Activity [8] of the same molecule?
A: Toxic

Q: And the IC50 (Plasmodium falciparum)?
A: < 12 µg/mL

Q: What about the Activity [9] of the same molecule?
A: Toxic

Q: And the Activity [10]?
A: Toxic
